The values below come from patent US12479848B2, “Substituted fused heteroaromatic bicyclic compounds as kinase inhibitors and the use thereof” (IMPACT THERAPEUTICS (SHANGHAI), INC, priority 2019, dated 2025).

Molecules are shown by their SMILES. Bounds are passed on as bounds.

Assay [1] addresses T1, ATR/ATRIP enzyme (Homo sapiens, UniProt Q13535).
T1 construct: purchased Eurofins 14-953
As to the kind of experiment: ATR enzyme activity experiment (HTRF). The assay is classed as biochemical. As to conditions: for inhibition at 0.05 µM: read-out: Inh %, inhibitory effects on ATR kinase activity at 50 nM; for IC50: HTRF, p53 substrate, 30 minutes at room temperature. As to the method:
The test compound was diluted to a 4× final concentration with reaction buffer (25 mM HEPES (pH8.0), 10 mM MnCl2, 1% glycerol, 0.01% Brij-35, 5 mM DTT and 0.1% BSA). […] The mixture was centrifuged at 1000 rpm for 1 minute, and reacted at room temperature protected from light for 30 minutes. Then 5 μL of EDTA stop solution (250 mM) was added to stop the reaction. […] Data were analyzed using GraphPad Prism6.0, and fitted using the curve equation: Y=Bottom+(Top−Bottom)/(1+10^((Log IC50−X)*HillSlope)) and IC50 values were calculated.

For assay [2], the system named is human lung cancer cell NCI-H460. As to the kind of experiment: MTT proliferation assay, NCI-H460. As to conditions: Homo sapiens, NCI-H460, 96 h, 4 days, read-out: IC50 (nM), inhibition of proliferation of NCI-H460. The assay is classed as cell-based. How it is done: (§1) The cells were seeded into 96-well cell culture plate with a density of 2000/4000 cells per well and incubated overnight in a 5% CO2 incubator at 37° C. […] 5 L diluent of each concentration was added to 120 μL of medium (25 times diluted) and mixed by shaking. The overnight cell plates were taken and the culture medium was removed, 195 μL of fresh medium was added to each well, and 5 μL of diluted medium containing the corresponding concentration of the test compound was added respectively (the final concentration of DMSO is 1%), and the culture plate was then placed in a 5% CO2 incubator at 37° C. for 4 days. After removing the original solution, 100 μL of fresh serum-free DMEM medium containing MTT (0.5 mg/mL) was added to each well, the culture was continued. […] Cell viability (%)=(ODcompound−ODbackground)/(ODDMSO−ODbackground)×100. GraphPad Prism 6.0 was used to analyze the data. The inhibitory activity of compounds on cell proliferation was plotted based on cell viability and the logarithm of compound concentration.

The test system of assay [3] is human colon cancer cell LoVo. As to the kind of experiment: MTT proliferation assay, LoVo. The assay is classed as cell-based. As to conditions: Homo sapiens, LoVo, 96 h, 4 days, read-out: IC50 (nM), inhibition of proliferation of LoVo. How it is done:
as §1, with “5 μL” for “5 L”, “viability (%)=(ODcompound−ODbackground)/(ODDMSO-ODbackground)×100.” for “viability (%)=(ODcompound−ODbackground)/(ODDMSO−ODbackground)×100.”

T1 sequence (Q13535 whole entry): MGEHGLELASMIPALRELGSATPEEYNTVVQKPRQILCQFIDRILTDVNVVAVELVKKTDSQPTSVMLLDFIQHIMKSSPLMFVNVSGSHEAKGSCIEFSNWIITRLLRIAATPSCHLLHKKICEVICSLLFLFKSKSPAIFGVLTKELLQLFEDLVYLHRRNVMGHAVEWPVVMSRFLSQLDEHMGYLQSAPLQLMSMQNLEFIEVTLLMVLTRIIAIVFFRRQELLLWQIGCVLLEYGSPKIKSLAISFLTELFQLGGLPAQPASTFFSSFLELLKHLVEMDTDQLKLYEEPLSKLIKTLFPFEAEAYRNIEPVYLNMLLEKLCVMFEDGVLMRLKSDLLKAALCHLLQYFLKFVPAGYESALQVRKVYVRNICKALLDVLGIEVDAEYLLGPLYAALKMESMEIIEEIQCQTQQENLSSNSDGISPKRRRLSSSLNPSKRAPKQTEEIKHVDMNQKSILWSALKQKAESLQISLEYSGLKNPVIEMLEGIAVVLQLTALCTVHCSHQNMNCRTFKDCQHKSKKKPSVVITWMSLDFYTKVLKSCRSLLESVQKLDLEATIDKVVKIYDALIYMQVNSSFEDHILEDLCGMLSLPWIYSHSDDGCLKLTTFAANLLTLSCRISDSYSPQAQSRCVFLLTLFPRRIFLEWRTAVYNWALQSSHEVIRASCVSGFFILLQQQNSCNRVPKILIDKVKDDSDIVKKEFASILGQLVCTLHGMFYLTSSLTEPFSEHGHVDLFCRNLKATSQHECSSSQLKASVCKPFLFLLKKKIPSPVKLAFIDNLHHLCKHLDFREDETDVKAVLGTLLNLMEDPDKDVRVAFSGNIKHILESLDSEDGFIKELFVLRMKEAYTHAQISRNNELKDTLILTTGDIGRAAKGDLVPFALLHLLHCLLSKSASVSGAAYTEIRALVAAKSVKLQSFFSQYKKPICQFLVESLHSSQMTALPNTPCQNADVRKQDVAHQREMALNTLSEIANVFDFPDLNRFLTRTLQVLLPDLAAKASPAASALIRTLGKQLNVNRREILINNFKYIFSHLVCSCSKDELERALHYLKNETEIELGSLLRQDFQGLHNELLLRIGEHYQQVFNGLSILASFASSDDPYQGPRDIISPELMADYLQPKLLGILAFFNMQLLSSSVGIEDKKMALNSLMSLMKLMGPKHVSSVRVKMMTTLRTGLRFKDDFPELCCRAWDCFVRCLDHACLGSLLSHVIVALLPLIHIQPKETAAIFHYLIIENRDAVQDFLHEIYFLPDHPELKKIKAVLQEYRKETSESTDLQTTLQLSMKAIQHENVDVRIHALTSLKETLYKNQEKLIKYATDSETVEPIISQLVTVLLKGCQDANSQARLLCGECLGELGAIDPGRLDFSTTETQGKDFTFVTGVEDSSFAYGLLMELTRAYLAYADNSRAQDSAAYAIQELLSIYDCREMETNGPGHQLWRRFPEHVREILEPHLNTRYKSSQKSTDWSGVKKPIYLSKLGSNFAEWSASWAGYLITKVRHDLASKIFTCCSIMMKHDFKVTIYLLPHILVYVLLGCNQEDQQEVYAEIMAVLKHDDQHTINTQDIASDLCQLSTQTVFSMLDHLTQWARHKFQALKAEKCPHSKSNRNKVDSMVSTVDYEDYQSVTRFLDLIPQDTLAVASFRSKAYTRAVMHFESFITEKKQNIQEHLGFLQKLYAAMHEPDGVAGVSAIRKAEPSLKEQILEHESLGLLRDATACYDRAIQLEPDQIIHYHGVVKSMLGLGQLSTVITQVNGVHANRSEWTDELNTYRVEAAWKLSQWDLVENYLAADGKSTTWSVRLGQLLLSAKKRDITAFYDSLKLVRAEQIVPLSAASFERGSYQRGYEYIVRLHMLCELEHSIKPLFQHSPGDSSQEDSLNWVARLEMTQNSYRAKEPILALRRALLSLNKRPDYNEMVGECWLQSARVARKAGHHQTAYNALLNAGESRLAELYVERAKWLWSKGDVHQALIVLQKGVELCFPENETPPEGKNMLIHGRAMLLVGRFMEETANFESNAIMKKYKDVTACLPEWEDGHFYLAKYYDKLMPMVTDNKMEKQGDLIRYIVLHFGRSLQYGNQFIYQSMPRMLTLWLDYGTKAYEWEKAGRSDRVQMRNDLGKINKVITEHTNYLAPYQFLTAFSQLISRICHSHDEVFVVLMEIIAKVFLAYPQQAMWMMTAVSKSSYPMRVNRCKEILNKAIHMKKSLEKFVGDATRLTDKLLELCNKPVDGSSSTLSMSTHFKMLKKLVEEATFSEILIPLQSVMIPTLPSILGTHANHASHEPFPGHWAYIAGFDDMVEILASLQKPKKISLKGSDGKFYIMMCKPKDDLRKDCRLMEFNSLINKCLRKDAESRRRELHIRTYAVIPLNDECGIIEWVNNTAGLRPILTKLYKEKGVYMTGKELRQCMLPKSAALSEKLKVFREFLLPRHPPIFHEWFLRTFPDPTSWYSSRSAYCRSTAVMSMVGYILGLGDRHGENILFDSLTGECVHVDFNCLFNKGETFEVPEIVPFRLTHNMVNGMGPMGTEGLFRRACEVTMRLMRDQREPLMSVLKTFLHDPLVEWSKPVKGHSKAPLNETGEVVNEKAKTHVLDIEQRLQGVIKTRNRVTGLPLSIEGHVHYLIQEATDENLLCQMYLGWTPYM
T1 sequence (Q8WXE1 whole entry partner): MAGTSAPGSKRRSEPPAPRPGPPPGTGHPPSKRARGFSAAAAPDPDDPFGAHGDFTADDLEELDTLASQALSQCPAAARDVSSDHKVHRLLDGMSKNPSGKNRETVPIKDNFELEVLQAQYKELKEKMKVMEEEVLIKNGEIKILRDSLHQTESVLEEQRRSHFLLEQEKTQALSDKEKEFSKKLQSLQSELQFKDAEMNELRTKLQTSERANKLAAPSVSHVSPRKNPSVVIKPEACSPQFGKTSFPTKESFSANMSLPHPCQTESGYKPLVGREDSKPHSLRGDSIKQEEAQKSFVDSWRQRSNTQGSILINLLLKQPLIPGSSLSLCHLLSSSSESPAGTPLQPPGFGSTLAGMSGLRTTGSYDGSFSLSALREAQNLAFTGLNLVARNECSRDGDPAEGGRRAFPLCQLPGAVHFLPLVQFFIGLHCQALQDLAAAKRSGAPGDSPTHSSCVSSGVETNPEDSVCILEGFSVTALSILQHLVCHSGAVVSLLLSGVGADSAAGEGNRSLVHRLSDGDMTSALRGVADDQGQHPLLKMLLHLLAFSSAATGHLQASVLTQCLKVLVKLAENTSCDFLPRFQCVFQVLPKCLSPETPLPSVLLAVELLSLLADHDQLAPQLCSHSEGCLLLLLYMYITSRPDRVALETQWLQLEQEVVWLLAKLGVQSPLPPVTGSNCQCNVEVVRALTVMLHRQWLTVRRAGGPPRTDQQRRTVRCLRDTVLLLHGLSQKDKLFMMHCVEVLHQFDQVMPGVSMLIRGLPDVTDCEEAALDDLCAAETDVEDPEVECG

For the compound `Cc1cc(S(C)(=O)=O)ncc1-c1cc(N2CCOC[C@H]2C)nn2c(-c3ccn[nH]3)ncc12` [Example 44, (R)-3-methyl-4-(4-(4-methyl-6-(methylsulfonyl)pyridin-3-yl)-7-(1H-pyrazol-5-yl)imidazo[1,5-b]pyridazin-2-yl)morpholine], the inhibition at 0.05 µM in assay [1] turned out to be 58%. In addition, the figures for the IC50 in assay [2] and in assay [3] were 289 nM and 138 nM, respectively.

With `Cc1ncncc1-c1cc(N2CCOC[C@H]2C)nn2c(-c3ccn[nH]3)ncc12` [Example 45, (R)-3-methyl-4-(4-(4-methylpyrimidin-5-yl)-7-(1H-pyrazol-5-yl)imidazo[1,5-b]pyridazin-2-yl)morpholine], the values for the IC50 in assay [1], in assay [2] and in assay [3] were 5 nM, 78.8 nM and 84.2 nM, respectively.

Consider `Cc1ccc(C)n1-c1cc(N2CCOC[C@H]2C)nn2c(-c3ccn[nH]3)ncc12` [Example 36, (R)-4-(4-(2,5-dimethyl-1H-pyrrol-1-yl)-7-(1H-pyrazol-5-yl)imidazo[1,5-b]pyridazin-2-yl)-3-methylmorpholine], for which the inhibition at 0.05 µM in assay [1] is 63%. For the same compound, the IC50 in assay [2] came to 116 nM; in assay [3], 114 nM.

Consider `Cc1ccccc1-c1cc(N2CCOC[C@H]2C)nn2c(-c3ccn[nH]3)ncc12` [Example 40, (R)-4-(7-(1H-pyrazol-5-yl)-4-(o-tolyl)imidazo[1,5-b]pyridazin-2-yl)-3-methylmorpholine], for which the IC50 in assay [1] was 2 nM; in assay [2], 17.4 nM; in assay [3], 21.8 nM.

In the case of `C[C@@H]1COCCN1c1cc(-c2ccnn2C)c2cnc(-c3ccc[nH]3)n2n1` [Example 22, (R)-3-methyl-4-(4-(1-methyl-1H-pyrazol-5-yl)-7-(1H-pyrrol-2-yl)imidazo[1,5-b]pyridazin-2-yl)morpholine], the figures for the IC50 in assay [1], in assay [2] and in assay [3] were 2.06 nM, 1150 nM and 854 nM, respectively.

With `C[C@@H]1COC[C@@H](C)N1c1cc(-c2ccnn2C)c2cnc(-c3ccn[nH]3)n2n1` [Example 34, (3R,5R)-3,5-dimethyl-4-(4-(1-methyl-1H-pyrazol-5-yl)-7-(1H-pyrazol-5-yl)imidazo[1,5-b]pyridazin-2-yl)morpholine], the results for the IC50 in assay [2] and in assay [3] were 1520 nM and 953 nM, respectively.

`Cc1nc(S(C)(=O)=O)ccc1-c1cc(N2CCOC[C@H]2C)nn2c(-c3ccn[nH]3)ncc12` [Example 48, (R)-3-methyl-4-(4-(2-methyl-6-(methylsulfonyl)pyridin-3-yl)-7-(1H-pyrazol-5-yl)imidazo[1,5-b]pyridazin-2-yl)morpholine]: the IC50 in assay [1] came out at 11 nM; in assay [2] it was 156 nM; in assay [3], 133 nM.

In the case of `Cc1cnn(C)c1-c1cc(N2CCOC[C@H]2C)nn2c(-c3ccn[nH]3)ncc12` [Example 41, (R)-4-(4-(1,4-dimethyl-1H-pyrazol-5-yl)-7-(1H-pyrazol-5-yl)imidazo[1,5-b]pyridazin-2-yl)-3-methylmorpholine], the IC50 in assay [1] was 2 nM; in assay [2] it was 48.8 nM; in assay [3], 49.5 nM.

For `C[C@@H]1COCCN1c1cc(-c2cccnc2C(F)(F)F)c2cnc(-c3ccn[nH]3)n2n1` [Example 47, (R)-4-(7-(1H-pyrazol-5-yl)-4-(2-(trifluoromethyl)pyridin-3-yl)imidazo[1,5-b]pyridazin-2-yl)-3-methylmorpholine], the figures for the IC50 in assay [1], in assay [2] and in assay [3] were 1 nM, 18.2 nM and 20.7 nM, respectively.

On to `C[C@H]1COCCN1c1cc(-c2ccnn2C)c2cnc(-c3ccn[nH]3)n2n1` [Example 33, (S)-3-methyl-4-(4-(1-methyl-1H-pyrazol-5-yl)-7-(1H-pyrazol-5-yl)imidazo[1,5-b]pyridazin-2-yl)morpholine], for which the inhibition at 0.05 µM in assay [1] was 27%. Also, the IC50 turned out to be 256 nM in assay [2] and 230 nM in assay [3].

In the case of `C[C@@H]1COCCN1c1cc(-c2ccn(CCF)n2)c2cnc(-c3ccn[nH]3)n2n1` [Example 61, (R)-4-(4-(1-(2-fluoroethyl)-1H-pyrazol-3-yl)-7-(1H-pyrazol-5-yl)imidazo[1,5-b]pyridazin-2-yl)-3-methylmorpholine], the results for the IC50 in assay [2] and in assay [3] were 169 nM and 175 nM, respectively.

With `CC(C)n1nccc1-c1cc(N2CCOC[C@H]2C)nn2c(-c3ccn[nH]3)ncc12` [Example 26, (R)-4-(4-(1-isopropyl-1H-pyrazol-5-yl)-7-(1H-pyrazol-5-yl)imidazo[1,5-b]pyridazin-2-yl)-3-methylmorpholine], the figures for the IC50 in assay [1], in assay [2] and in assay [3] were 6 nM, 55.2 nM and 68.2 nM, respectively.

In the case of `C[C@@H]1COCCN1c1cc(-c2ccnn2C)c2nnc(-c3ccn[nH]3)n2n1` [Example 15, (R)-3-methyl-4-(8-(1-methyl-1H-pyrazol-5-yl)-3-(1H-pyrazol-5-yl)-[1,2,4]triazolo[4,3-b]pyridazin-6-yl)morpholine], the IC50 in assay [2] stood at 1920 nM; in assay [3] it was 597 nM.

For `C[C@@H]1COCCN1c1cc(-c2cccc(C#N)c2)c2cnc(-c3ccn[nH]3)n2n1` [Example 52, (R)-3-(2-(3-methylmorpholino)-7-(1H-pyrazol-5-yl)imidazo[1,5-b]pyridazin-4-yl)benzonitrile], the values for the IC50 in assay [1], in assay [2] and in assay [3] were 9 nM, 26.3 nM and 41.9 nM, respectively.

Take `C[C@@H]1COCCN1c1cc(-c2ccnn2C)c2cnc(-c3c[nH]cn3)n2n1` [Example 23, (R)-4-(7-(1H-imidazol-4-yl)-4-(1-methyl-1H-pyrazol-5-yl)imidazo[1,5-b]pyridazin-2-yl)-3-methylmorpholine]: the IC50 in assay [1] was more than 1000 nM; in assay [2], 1800 nM; in assay [3] it was 1530 nM.

Consider `C[C@@H]1COCCN1c1cc(N2CCOCC2)c2cnc(-c3ccn[nH]3)n2n1` [Example 46, (R)-3-methyl-4-(4-morpholino-7-(1H-pyrazol-5-yl)imidazo[1,5-b]pyridazin-2-yl)morpholine], for which the IC50 was determined as 12 nM in assay [1], 77.8 nM in assay [2] and 72.8 nM in assay [3].

With `Cc1ccc(-c2cc(N3CCOC[C@H]3C)nn3c(-c4ccn[nH]4)ncc23)cn1` [Example 24, (R)-3-methyl-4-(4-(6-methylpyridin-3-yl)-7-(1H-pyrazol-5-yl)imidazo[1,5-b]pyridazin-2-yl)morpholine], the IC50 stood at 2 nM in assay [1], 27.8 nM in assay [2] and 34.4 nM in assay [3].

`Cn1nccc1-c1cc(N2CCOCC2)nn2c(-c3ccn[nH]3)nnc12` [Example 12, 4-(8-(1-methyl-1H-pyrazol-5-yl)-3-(1H-pyrazol-5-yl)-[1,2,4]triazolo[4,3-b]pyridazin-6-yl)morpholine]: the IC50 is more than 10000 nM in assay [2] and 3230 nM in assay [3].

In the case of `C[C@@H]1COCCN1c1cc(-c2ccn[nH]2)c2cnc(-c3ccn[nH]3)n2n1` [Example 27, (R)-4-(4,7-di(1H-pyrazol-5-yl)imidazo[1,5-b]pyridazin-2-yl)-3-methylmorpholine], the IC50 in assay [2] was 287 nM; in assay [3], 124 nM.

With `C[C@@H]1COCCN1c1cc(-c2ccnn2C)c2ncc(-c3ccn[nH]3)n2c1` [Example 1, (R)-3-methyl-4-(8-(1-methyl-1H-pyrazol-5-yl)-3-(1H-pyrazol-5-yl)imidazo[1,2-a]pyridin-6-yl)morpholine], the IC50 in assay [1] is more than 10000 nM.

Consider `Cc1cnccc1-c1cc(N2CCOC[C@H]2C)nn2c(-c3ccn[nH]3)ncc12` [Example 51, (R)-3-methyl-4-(4-(3-methylpyridin-4-yl)-7-(1H-pyrazol-5-yl)imidazo[1,5-b]pyridazin-2-yl)morpholine], for which the IC50 came out at 76.3 nM in assay [2] and 76.7 nM in assay [3].

Consider `C[C@@H]1COCCN1c1cc(-c2ccnc3[nH]ccc23)c2cnc(-c3ccn[nH]3)n2n1` [Example 55, (R)-4-(7-(1H-pyrazol-5-yl)-4-(1H-pyrrolo[2,3-b]pyridin-4-yl)imidazo[1,5-b]pyridazin-2-yl)-3-methylmorpholine], for which the IC50 came out at 95.3 nM in assay [2] and 51 nM in assay [3].
